According to ChEMBL document CHEMBL1130256, “1-[1-2-Benzo[b]thiopheneyl)cyclohexyl]piperidine hydrochloride (BTCP) yields two active primary metabolites in vitro: synthesis, identification from rat liver microsome extracts, and affinity for the neuronal dopamine transporter” (J Med Chem, 1997):
pIC50: −log10 of the molar value.

Tests used:
[1] = Amount of metabolites in the microsomal medium after 90 min incubation of BTCP (500 uM); type: ADME, Microsome; settings: microsomes, 1.5 h
[2] = molecular target: Sodium-dependent dopamine transporter (Rattus norvegicus, UniProt P23977); test: Inhibitory activity of compound against [3H]BTCP binding to neuronal dopamine transporter of rat striatal membrane
Sequence of Sodium-dependent dopamine transporter (P23977 whole entry): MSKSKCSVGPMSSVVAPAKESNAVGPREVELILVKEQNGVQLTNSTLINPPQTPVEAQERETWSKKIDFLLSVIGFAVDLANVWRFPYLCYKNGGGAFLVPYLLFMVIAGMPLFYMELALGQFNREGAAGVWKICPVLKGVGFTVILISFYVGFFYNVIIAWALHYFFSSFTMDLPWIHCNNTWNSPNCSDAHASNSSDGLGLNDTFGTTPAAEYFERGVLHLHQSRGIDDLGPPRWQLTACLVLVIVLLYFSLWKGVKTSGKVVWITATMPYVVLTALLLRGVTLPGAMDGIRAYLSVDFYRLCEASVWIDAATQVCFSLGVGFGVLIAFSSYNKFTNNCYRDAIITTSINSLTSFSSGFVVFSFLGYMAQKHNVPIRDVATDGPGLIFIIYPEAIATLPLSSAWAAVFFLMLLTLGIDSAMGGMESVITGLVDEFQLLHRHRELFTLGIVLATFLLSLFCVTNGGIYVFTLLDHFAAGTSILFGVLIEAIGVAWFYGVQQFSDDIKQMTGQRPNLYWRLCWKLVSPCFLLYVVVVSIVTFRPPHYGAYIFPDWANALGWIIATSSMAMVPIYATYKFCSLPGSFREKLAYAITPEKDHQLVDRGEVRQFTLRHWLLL

Row | SMILES | Amount [1] | pIC50 [2]
1 | OC1CCCN(C2(c3cc4ccccc4s3)CCCCC2)C1 (stereo not given) | 147 pmol | 8.76
2 | OC1CCN(C2(c3cc4ccccc4s3)CCCCC2)CC1 | 615 pmol | 
3 | O[C@@H]1CCC[C@@](c2cc3ccccc3s2)(N2CCCCC2)C1 | 4 pM | 
4 | OC1(c2cc3ccccc3s2)CCCCC1 | 141 pmol | 
